Measurements reported in US10231453B2, “5-substituted imidazole derivatives” (BAYER CROPSCIENCE AKTIENGESELLSCHAFT, priority 2015, dated 2019).

How the values were obtained:
[1] = Measurement of LogP values by HPLC on reversed phase columns (EEC directive 79/831 Annex V.A8); format: physicochemical; settings: method [a]: LC-UV, acidic range, 0.1% formic acid in water and acetonitrile as eluent
Protocol: Measurement of Log P values was performed as outlined above.

[2] = tested on: Puccinia recondita; assay: In vivo preventive test on Puccinia recondita (brown rust on wheat), Examples C and R3; settings: Puccinia recondita, 264 h, Example R3, wheat, preventive spray, evaluated 11 days after inoculation, read-out: Efficacy in %
[3] = tested on: Septoria tritici; assay: In vivo preventive test on Septoria tritici (leaf spot on wheat), Examples E, Q3 and R5; settings: Zymoseptoria tritici, 576 h, Example R5, wheat, preventive spray, evaluated 24 days after inoculation, read-out: Efficacy in %
[4] = tested on: Sphaerotheca fuliginea; assay: In vivo preventive test on Sphaerotheca fuliginea (powdery mildew on cucurbits), Examples F and R6; settings: Podosphaera fuliginea, 360 h, Example R6, gherkin, preventive spray, evaluated 15 days after inoculation, read-out: Efficacy in %
[5] = tested on: Uromyces appendiculatus; assay: In vivo preventive test on Uromyces appendiculatus (bean rust), Examples G and R7; settings: 264 h, Example R7, bean, preventive spray, evaluated 11 days after inoculation, read-out: Efficacy in %

N#Cc1cncn1CC(O)(Cc1ccncc1F)C1(Cl)CC1 (stereo not drawn) [Example I-163]
chromatographic logP ([1]; Table 1): 1.62

N#Cc1cncn1CC(O)(Cc1ccnnc1Cl)C1(Cl)CC1 (stereo not drawn) [Example I-168]
chromatographic logP ([1]; Table 1): 1.59

O=C(Cn1cncc1Cl)C1(Cl)CC1 [XVII-1, 1-(1-chlorocyclopropyl)-2-(5-chloro-1H-imidazol-1-yl)ethanone]
chromatographic logP ([1]; Table 2, compounds of formula (XVII)): 0.75

OC(Cc1ccccc1Cl)(Cn1cnc(Br)c1)C1(Cl)CC1 (stereo not drawn) [drawing 87]
pest or weed control at 100 ppm [2]: 75% | pest or weed control at 500 ppm [2]: 81%

Cc1cn(CC(O)(Cc2ccccc2Cl)C2(Cl)CC2)cn1 (stereo not drawn) [drawing 89]
pest or weed control at 100 ppm [2]: 29% | pest or weed control at 500 ppm [2]: 86%

N#Cc1cn(CC(O)(Cc2ccccc2Cl)C2(Cl)CC2)cn1 (stereo not drawn) [drawing 91]
pest or weed control at 100 ppm [2]: 0% | pest or weed control at 500 ppm [2]: 83%

C#Cc1cn(CC(O)(Cc2ccccc2F)C2(Cl)CC2)cn1 (stereo not drawn) [drawing 93]
pest or weed control at 100 ppm [2]: 0% | pest or weed control at 500 ppm [2]: 13%

OC(Cc1ccccc1F)(Cn1cnc(Cl)c1)C1(Cl)CC1 (stereo not drawn) [drawing 95]
pest or weed control at 100 ppm [2]: 0% | pest or weed control at 500 ppm [2]: 33%

OC(Cc1ccccc1F)(Cn1ccnc1Cl)C1(Cl)CC1 (stereo not drawn) [drawing 96]
pest or weed control at 100 ppm [2]: 0% | pest or weed control at 500 ppm [2]: 0%

N#Cc1cn(CC(O)(Cc2ccccc2F)C2(Cl)CC2)cn1 (stereo not drawn) [drawing 104]
pest or weed control at 100 ppm [2]: 11% | pest or weed control at 500 ppm [2]: 78%

OC(Cc1ccccc1Cl)(Cn1cnc(Br)c1)C1(Cl)CC1 (stereo not drawn) [drawing 123]
pest or weed control at 100 ppm [3]: 75% | pest or weed control at 500 ppm [3]: 83%

Cc1cn(CC(O)(Cc2ccccc2Cl)C2(Cl)CC2)cn1 (stereo not drawn) [drawing 125]
pest or weed control at 100 ppm [3]: 17% | pest or weed control at 500 ppm [3]: 33%

N#Cc1cn(CC(O)(Cc2ccccc2Cl)C2(Cl)CC2)cn1 (stereo not drawn) [drawing 127]
pest or weed control at 100 ppm [3]: 44% | pest or weed control at 500 ppm [3]: 78%

C#Cc1cn(CC(O)(Cc2ccccc2F)C2(Cl)CC2)cn1 (stereo not drawn) [drawing 129]
pest or weed control at 100 ppm [3]: 63% | pest or weed control at 500 ppm [3]: 63%

OC(Cc1ccccc1F)(Cn1cnc(Cl)c1)C1(Cl)CC1 (stereo not drawn) [drawing 131]
pest or weed control at 100 ppm [3]: 0% | pest or weed control at 500 ppm [3]: 93%

OC(Cc1ccccc1F)(Cn1ccnc1Cl)C1(Cl)CC1 (stereo not drawn) [drawing 132]
pest or weed control at 100 ppm [3]: 20% | pest or weed control at 500 ppm [3]: 96%

N#Cc1cn(CC(O)(Cc2ccccc2F)C2(Cl)CC2)cn1 (stereo not drawn) [drawing 140]
pest or weed control at 100 ppm [3]: 14% | pest or weed control at 500 ppm [3]: 86%

OC(Cc1ccccc1Cl)(Cn1cnc(Br)c1)C1(Cl)CC1 (stereo not drawn) [drawing 142]
pest or weed control at 100 ppm [4]: 20% | pest or weed control at 500 ppm [4]: 30%

Cc1cn(CC(O)(Cc2ccccc2Cl)C2(Cl)CC2)cn1 (stereo not drawn) [drawing 144]
pest or weed control at 100 ppm [4]: 0% | pest or weed control at 500 ppm [4]: 30%

C#Cc1cn(CC(O)(Cc2ccccc2F)C2(Cl)CC2)cn1 (stereo not drawn) [drawing 146]
pest or weed control at 100 ppm [4]: 0% | pest or weed control at 500 ppm [4]: 60%

OC(Cc1ccccc1F)(Cn1cnc(Cl)c1)C1(Cl)CC1 (stereo not drawn) [drawing 148]
pest or weed control at 100 ppm [4]: 60% | pest or weed control at 500 ppm [4]: 98%

OC(Cc1ccccc1F)(Cn1ccnc1Cl)C1(Cl)CC1 (stereo not drawn) [drawing 149]
pest or weed control at 100 ppm [4]: 0% | pest or weed control at 500 ppm [4]: 78%

N#Cc1cn(CC(O)(Cc2ccccc2F)C2(Cl)CC2)cn1 (stereo not drawn) [drawing 157]
pest or weed control at 100 ppm [4]: 95% | pest or weed control at 500 ppm [4]: 95%

OC(Cc1ccccc1Cl)(Cn1cnc(Br)c1)C1(Cl)CC1 (stereo not drawn) [drawing 159]
pest or weed control at 100 ppm [5]: 56% | pest or weed control at 500 ppm [5]: 47%

Cc1cn(CC(O)(Cc2ccccc2Cl)C2(Cl)CC2)cn1 (stereo not drawn) [drawing 161]
pest or weed control at 100 ppm [5]: 0% | pest or weed control at 500 ppm [5]: 100%

N#Cc1cn(CC(O)(Cc2ccccc2Cl)C2(Cl)CC2)cn1 (stereo not drawn) [drawing 163]
pest or weed control at 100 ppm [5]: 25% | pest or weed control at 500 ppm [5]: 50%

C#Cc1cn(CC(O)(Cc2ccccc2F)C2(Cl)CC2)cn1 (stereo not drawn) [drawing 165]
pest or weed control at 100 ppm [5]: 0% | pest or weed control at 500 ppm [5]: 0%

OC(Cc1ccccc1F)(Cn1cnc(Cl)c1)C1(Cl)CC1 (stereo not drawn) [drawing 167]
pest or weed control at 100 ppm [5]: 0% | pest or weed control at 500 ppm [5]: 0%

OC(Cc1ccccc1F)(Cn1ccnc1Cl)C1(Cl)CC1 (stereo not drawn) [drawing 168]
pest or weed control at 100 ppm [5]: 0% | pest or weed control at 500 ppm [5]: 0%

N#Cc1cn(CC(O)(Cc2ccccc2F)C2(Cl)CC2)cn1 (stereo not drawn) [drawing 176]
pest or weed control at 100 ppm [5]: 25% | pest or weed control at 500 ppm [5]: 56%
